Experimental findings from the supplement of paper PMC11061612 are described below.

For assay [1], the system named is OCI-AML3 (Acute Myeloid Leukemia). Put plainly: Bliss excess, mean over the matrix (fraction); higher = more synergy. The method, boiled down:
(§1)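 After 24 hours at 37°C and 5% CO2 in 1536-well plates, cells in DMEM/F12 or RPMI plus 10% FBS received two-drug dose matrices for 72 hours. Viability came from CellTiter-Glo 2.0 luminescence and was scaled as inhibition, anchored at 0 by vehicle wells and at 1 by blank wells. Combination Emax is taken as the second-highest inhibition in the matrix, and Bliss excess as the observed combination effect less EA + EB − EA·EB, with EA and EB the single-agent effects.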

Assay [2] concerns ESO51 (Esophageal Adenocarcinoma). Described as above. In a few lines:
as §1

In a further assay the test system is G-361 (Melanoma). The assay is described as above. In a few lines: as §1
Assay [3] has as its system OCI-AML3 (Acute Myeloid Leukemia). Put plainly: combination Emax (second highest fraction inhibited in the dose matrix, 72 h); higher = more inhibition; extreme values may be limits of the assay. In a few lines:
as §1
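Throughout, for Bliss excess, mean over the matrix: after 72 h of two-drug dosing.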

For `COc1cc2ncnc(Nc3ccc(F)c(Cl)c3)c2cc1OCCCN1CCOCC1` [Gefitinib] + CC(C)n1c(=O)n(C)c2cnc3cc(F)c(-c4ccc(OCCCN5CCCCC5)nc4)cc3c21 [AZD1390] (first compound max 10 µM, 7x7, partner max 0.3 µM), the results for the Bliss excess (in assay [1]; in assay [2]; in the assay with G-361 (Melanoma)) were -0.0457, -0.0488 and -0.0718, respectively. Further, in assay [3], the “combination Emax” value was found to be 0.059.

On to `NC1(C(=O)N[C@@H](CCO)c2ccc(Cl)cc2)CCN(c2ncnc3[nH]ccc23)CC1` [Capivasertib] + CC(C)n1c(=O)n(C)c2cnc3cc(F)c(-c4ccc(OCCCN5CCCCC5)nc4)cc3c21 [AZD1390] (first compound max 10 µM, 7x7, partner max 0.3 µM), for which the Bliss excess in assay [1] is -0.11; in assay [2], -0.0416; with G-361 (Melanoma), -0.0344. Further, the “combination Emax” value in assay [3] is 0.37.

Take `CC(=O)c1c(C)c2cnc(Nc3ccc(N4CCNCC4)cn3)nc2n(C2CCCC2)c1=O` [Palbociclib] + Cc1c2c(nn1C)CSCc1cc(n(C)n1)CSc1cc(c3ccccc3c1)OCCCc1c(C(=O)O)n(C)c3c-2c(Cl)ccc13 [AZD5991] (first compound max 10 µM, 7x7, partner max 1 µM): the Bliss excess is 0.0376 in assay [1], -0.0192 in assay [2] and -0.0464 in the assay on G-361 (Melanoma). In addition, the “combination Emax” value in assay [3] was 1.

Turning to `Cn1cnc2c(F)c(Nc3ccc(Br)cc3Cl)c(C(=O)NOCCO)cc21` [Selumetinib] + CC(C)n1c(=O)n(C)c2cnc3cc(F)c(-c4ccc(OCCCN5CCCCC5)nc4)cc3c21 [AZD1390] (first compound max 10 µM, 7x7, partner max 0.3 µM), the Bliss excess was -0.0696 in assay [1], 0.0114 in assay [2] and -0.0582 in the assay on G-361 (Melanoma). In addition, the “combination Emax” value in assay [3] turned out to be 0.909.

Consider `C[C@@H](c1ccc2nccn2c1)n1nnc2ncc(-c3cnn(C)c3)nc21` [Savolitinib] + Cc1c2c(nn1C)CSCc1cc(n(C)n1)CSc1cc(c3ccccc3c1)OCCCc1c(C(=O)O)n(C)c3c-2c(Cl)ccc13 [AZD5991] (first compound max 1 µM, 7x7, partner max 1 µM), for which the results for the Bliss excess (in assay [1]; in assay [2]; with G-361 (Melanoma)) were -0.0103, -0.0013 and -0.0044, respectively. Besides, in assay [3], the “combination Emax” value was determined as 0.967.

Regarding `Cn1cnc2c(F)c(Nc3ccc(Br)cc3Cl)c(C(=O)NOCCO)cc21` [Selumetinib] + CCN(CCO)CCCOc1ccc2c(Nc3cc(CC(=O)Nc4cccc(F)c4)[nH]n3)ncnc2c1 [AZD2811] (first compound max 10 µM, 7x7, partner max 1 µM), the results for the Bliss excess (in assay [1]; in assay [2]; in the assay with G-361 (Melanoma)) were 0.0086, 0.0567 and 0.0005, respectively. For the same molecule, in assay [3], the “combination Emax” value is 0.949.

On to `COc1nnc2ccc(N3CCC(c4ccc(OCCN5CCN(C)C(=O)[C@H]5C)cc4)CC3)nn12` [AZD5153] + CC1(C)CCC(CN2CCN(c3ccc(C(=O)NS(=O)(=O)c4ccc(NCC5CCOCC5)c([N+](=O)[O-])c4)c(Oc4cnc5[nH]ccc5c4)c3)CC2)=C(c2ccc(Cl)cc2)C1 [Venetoclax] (first compound max 1 µM, 7x7, partner max 1 µM), for which the values for the Bliss excess (in assay [1]; in assay [2]; with G-361 (Melanoma)) were -0.052, -0.0346 and -0.0649, respectively. Moreover, the “combination Emax” value in assay [3] was determined as 1.

Turning to `CS(=O)(=O)CCNCc1ccc(-c2ccc3ncnc(Nc4ccc(OCc5cccc(F)c5)c(Cl)c4)c3c2)o1` [Lapatinib] + C[C@@H](Oc1cc(-c2cnn(C3CCNCC3)c2)cnc1N)c1c(Cl)ccc(F)c1Cl [Crizotinib] (first compound max 10 µM, 7x7, partner max 10 µM), the Bliss excess is -0.0235 in assay [1], 0.0885 in assay [2] and -0.0416 with G-361 (Melanoma). The “combination Emax” value in assay [3] was 0.846.

As for `NC1(C(=O)N[C@@H](CCO)c2ccc(Cl)cc2)CCN(c2ncnc3[nH]ccc23)CC1` [Capivasertib] + Cn1cnc2c(F)c(Nc3ccc(Br)cc3Cl)c(C(=O)NOCCO)cc21 [Selumetinib] (first compound max 10 µM, 7x7, partner max 10 µM), the Bliss excess is -0.0291 in assay [1], 0.0417 in assay [2] and 0.0429 with G-361 (Melanoma). Moreover, in assay [3], the “combination Emax” value was found to be 0.918.

Regarding `COc1nnc2ccc(N3CCC(c4ccc(OCCN5CCN(C)C(=O)[C@H]5C)cc4)CC3)nn12` [AZD5153] + CCN(CCO)CCCOc1ccc2c(Nc3cc(CC(=O)Nc4cccc(F)c4)[nH]n3)ncnc2c1 [AZD2811] (first compound max 1 µM, 7x7, partner max 1 µM), the Bliss excess in assay [1] is 0.05; in assay [2], -0.0152; with G-361 (Melanoma), -0.0432. In addition, the “combination Emax” value in assay [3] was 1.

Turning to `Cn1cnc2c(F)c(Nc3ccc(Br)cc3Cl)c(C(=O)NOCCO)cc21` [Selumetinib] + C=CCn1c(=O)c2cnc(Nc3ccc(N4CCN(C)CC4)cc3)nc2n1-c1cccc(C(C)(C)O)n1 [AZD1775] (first compound max 10 µM, partner max 1 µM), the figures for the Bliss excess (in assay [1]; in assay [2]; in the assay on G-361 (Melanoma)) were -0.0213, -0.0767 and -0.0084, respectively. Further, the “combination Emax” value in assay [3] was found to be 0.94.

For the molecule `Cn1cnc2c(F)c(Nc3ccc(Br)cc3Cl)c(C(=O)NOCCO)cc21` [Selumetinib] + C[C@@H]1COCCN1C2=NC(=NC(=C2)C3(CC3)[S@](=N)(=O)C)C4=C5C=CNC5=NC=C4 [AZD6738] (first compound max 10 µM, 7x7, partner max 10 µM), the Bliss excess in assay [1] was -0.0941; in assay [2], 0.0119; in the assay on G-361 (Melanoma), -0.0081. The “combination Emax” value in assay [3] amounted to 0.943.
